These results are taken from ChEMBL document CHEMBL3879901, “Substituted isoquinolin-1(2H)-ones, and methods of use thereof” (2012).

A word on the IC50: it is the concentration that inhibits the measured activity by half. One may read the EC50 as the midpoint of the concentration-response curve.

For test [1], the target named is Phosphatidylinositol 4,5-bisphosphate 3-kinase catalytic subunit gamma isoform (Homo sapiens, UniProt P48736). The test is described as follows: Inhibition of recombinant human C-terminal His6-tagged p110gamma expressed in insect cells using phosphatidylinositol as substrate in presence of gamma-32P-ATP after 5 mins by thin layer chromatographic method.
A short description of test [2]: Antiproliferative activity against Balb/c mouse splenic B cells preincubated for 30 mins followed by LPS or F(ab')2 donkey anti-mouse IgM and recombinant mouse IL4 stimulation measured after 72 hrs by Alamar Blue reduction assay. In kind it is functional, cell-based.
The target of test [3] is PI3-kinase p110-alpha/p85-alpha (Homo sapiens, UniProt P42336). The test is described as follows: Inhibition of N-terminal His6-tagged recombinant full-length human p110alpha/untagged recombinant full length human p85alpha expressed in baculovirus infected Sf21 cells using phosphatidylinositol as substrate in presence of gamma-32P-ATP after 5 mins by thin layer chromatographic method.

In test [4] the target is PI3-kinase p110-delta/p85-alpha (Homo sapiens, UniProt O00329). Description: Inhibition of N-terminal His6-tagged recombinant full-length human p110delta/untagged recombinant full length p85alpha expressed in baculovirus infected Sf21 cells using phosphatidylinositol as substrate in presence of gamma-32P-ATP after 5 mins by thin layer chromatographic method.
For test [5], the target named is PI3K p110 beta/p85 alpha (Homo sapiens, UniProt P42338). The test is described as follows: Inhibition of N-terminal His6-tagged recombinant full-length human p110beta/untagged recombinant full length p85alpha expressed in baculovirus infected Sf21 cells using phosphatidylinositol as substrate in presence of gamma-32P-ATP after 5 mins by thin layer chromatographic method.

Structures are written as SMILES.

Chain of Phosphatidylinositol 4,5-bisphosphate 3-kinase catalytic subunit gamma isoform (P48736 whole entry, canonical isoform): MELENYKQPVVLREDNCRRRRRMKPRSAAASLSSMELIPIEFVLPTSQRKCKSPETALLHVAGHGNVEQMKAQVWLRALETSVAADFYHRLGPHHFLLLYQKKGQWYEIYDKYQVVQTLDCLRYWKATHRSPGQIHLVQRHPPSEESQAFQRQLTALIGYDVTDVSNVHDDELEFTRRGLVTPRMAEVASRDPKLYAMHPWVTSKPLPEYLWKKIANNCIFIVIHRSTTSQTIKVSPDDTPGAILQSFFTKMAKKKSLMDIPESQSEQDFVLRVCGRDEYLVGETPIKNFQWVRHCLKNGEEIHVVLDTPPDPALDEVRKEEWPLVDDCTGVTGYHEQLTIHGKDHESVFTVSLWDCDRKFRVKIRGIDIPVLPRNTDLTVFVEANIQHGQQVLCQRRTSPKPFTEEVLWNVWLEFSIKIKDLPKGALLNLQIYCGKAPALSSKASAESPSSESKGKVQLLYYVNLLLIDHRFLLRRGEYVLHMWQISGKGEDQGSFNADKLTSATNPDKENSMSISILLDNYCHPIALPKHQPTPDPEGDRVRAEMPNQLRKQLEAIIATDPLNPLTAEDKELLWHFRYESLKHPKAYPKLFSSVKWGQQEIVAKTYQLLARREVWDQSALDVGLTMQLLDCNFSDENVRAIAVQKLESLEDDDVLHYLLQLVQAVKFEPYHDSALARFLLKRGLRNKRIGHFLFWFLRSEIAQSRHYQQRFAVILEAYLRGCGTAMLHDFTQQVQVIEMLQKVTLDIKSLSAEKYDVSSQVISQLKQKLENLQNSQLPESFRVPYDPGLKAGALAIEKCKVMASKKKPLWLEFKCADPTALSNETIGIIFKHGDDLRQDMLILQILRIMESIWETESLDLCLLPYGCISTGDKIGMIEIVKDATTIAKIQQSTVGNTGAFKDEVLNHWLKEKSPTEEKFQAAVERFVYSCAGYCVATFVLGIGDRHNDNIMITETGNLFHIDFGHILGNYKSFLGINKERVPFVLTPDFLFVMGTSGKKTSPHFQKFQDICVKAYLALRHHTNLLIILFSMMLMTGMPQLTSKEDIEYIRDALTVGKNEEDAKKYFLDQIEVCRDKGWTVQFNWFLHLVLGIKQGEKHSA
Chain of PI3K p110 beta/p85 alpha (P27986 whole entry): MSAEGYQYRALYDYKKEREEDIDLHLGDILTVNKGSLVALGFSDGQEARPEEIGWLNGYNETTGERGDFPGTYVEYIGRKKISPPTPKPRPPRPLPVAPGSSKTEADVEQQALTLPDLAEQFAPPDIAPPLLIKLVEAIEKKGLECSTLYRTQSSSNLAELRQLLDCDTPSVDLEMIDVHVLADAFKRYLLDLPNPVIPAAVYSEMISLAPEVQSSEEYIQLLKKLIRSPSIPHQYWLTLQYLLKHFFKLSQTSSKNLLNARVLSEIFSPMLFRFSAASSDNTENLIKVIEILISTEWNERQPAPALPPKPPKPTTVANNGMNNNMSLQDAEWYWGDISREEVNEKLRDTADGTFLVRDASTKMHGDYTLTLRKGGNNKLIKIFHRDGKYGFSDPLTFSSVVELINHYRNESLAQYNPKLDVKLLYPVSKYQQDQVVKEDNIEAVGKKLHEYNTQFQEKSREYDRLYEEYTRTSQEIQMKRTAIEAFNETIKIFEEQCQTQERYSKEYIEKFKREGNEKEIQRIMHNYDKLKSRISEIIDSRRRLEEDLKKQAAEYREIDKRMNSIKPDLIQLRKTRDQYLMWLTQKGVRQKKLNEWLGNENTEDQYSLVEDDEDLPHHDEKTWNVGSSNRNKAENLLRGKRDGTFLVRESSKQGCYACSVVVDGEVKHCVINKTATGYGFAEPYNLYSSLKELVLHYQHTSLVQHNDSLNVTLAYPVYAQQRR
Chain of PI3K p110 beta/p85 alpha (P42338 whole entry): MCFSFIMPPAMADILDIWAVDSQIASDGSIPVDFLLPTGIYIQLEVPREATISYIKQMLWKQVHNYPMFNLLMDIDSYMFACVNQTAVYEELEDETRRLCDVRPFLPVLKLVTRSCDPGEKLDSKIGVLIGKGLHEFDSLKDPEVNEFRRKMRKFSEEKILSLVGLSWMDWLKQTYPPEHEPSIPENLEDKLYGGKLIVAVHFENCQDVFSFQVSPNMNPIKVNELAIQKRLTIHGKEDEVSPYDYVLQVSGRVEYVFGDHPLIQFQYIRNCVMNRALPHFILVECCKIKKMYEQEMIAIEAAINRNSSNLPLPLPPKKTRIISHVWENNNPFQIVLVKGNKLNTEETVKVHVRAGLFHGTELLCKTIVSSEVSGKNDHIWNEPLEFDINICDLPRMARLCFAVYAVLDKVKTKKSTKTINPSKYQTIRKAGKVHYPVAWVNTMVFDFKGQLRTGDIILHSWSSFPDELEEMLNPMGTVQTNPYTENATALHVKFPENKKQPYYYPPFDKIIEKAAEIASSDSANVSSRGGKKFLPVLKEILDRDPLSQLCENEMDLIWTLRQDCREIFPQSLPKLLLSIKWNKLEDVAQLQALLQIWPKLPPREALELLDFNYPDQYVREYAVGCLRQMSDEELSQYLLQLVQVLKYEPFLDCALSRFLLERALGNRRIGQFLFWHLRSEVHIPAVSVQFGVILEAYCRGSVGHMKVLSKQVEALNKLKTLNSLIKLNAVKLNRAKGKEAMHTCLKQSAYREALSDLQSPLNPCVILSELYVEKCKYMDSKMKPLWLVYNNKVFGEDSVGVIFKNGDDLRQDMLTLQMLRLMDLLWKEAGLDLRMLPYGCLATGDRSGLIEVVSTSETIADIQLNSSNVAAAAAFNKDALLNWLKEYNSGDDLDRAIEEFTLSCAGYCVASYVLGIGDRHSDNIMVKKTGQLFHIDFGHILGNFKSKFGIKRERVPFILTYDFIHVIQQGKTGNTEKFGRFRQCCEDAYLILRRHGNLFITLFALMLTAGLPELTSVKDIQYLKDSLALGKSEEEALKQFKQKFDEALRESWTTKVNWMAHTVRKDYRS
Chain of PI3-kinase p110-delta/p85-alpha (P27986 whole entry): as the sequence (P27986 whole entry) above
Chain of PI3-kinase p110-delta/p85-alpha (O00329 whole entry): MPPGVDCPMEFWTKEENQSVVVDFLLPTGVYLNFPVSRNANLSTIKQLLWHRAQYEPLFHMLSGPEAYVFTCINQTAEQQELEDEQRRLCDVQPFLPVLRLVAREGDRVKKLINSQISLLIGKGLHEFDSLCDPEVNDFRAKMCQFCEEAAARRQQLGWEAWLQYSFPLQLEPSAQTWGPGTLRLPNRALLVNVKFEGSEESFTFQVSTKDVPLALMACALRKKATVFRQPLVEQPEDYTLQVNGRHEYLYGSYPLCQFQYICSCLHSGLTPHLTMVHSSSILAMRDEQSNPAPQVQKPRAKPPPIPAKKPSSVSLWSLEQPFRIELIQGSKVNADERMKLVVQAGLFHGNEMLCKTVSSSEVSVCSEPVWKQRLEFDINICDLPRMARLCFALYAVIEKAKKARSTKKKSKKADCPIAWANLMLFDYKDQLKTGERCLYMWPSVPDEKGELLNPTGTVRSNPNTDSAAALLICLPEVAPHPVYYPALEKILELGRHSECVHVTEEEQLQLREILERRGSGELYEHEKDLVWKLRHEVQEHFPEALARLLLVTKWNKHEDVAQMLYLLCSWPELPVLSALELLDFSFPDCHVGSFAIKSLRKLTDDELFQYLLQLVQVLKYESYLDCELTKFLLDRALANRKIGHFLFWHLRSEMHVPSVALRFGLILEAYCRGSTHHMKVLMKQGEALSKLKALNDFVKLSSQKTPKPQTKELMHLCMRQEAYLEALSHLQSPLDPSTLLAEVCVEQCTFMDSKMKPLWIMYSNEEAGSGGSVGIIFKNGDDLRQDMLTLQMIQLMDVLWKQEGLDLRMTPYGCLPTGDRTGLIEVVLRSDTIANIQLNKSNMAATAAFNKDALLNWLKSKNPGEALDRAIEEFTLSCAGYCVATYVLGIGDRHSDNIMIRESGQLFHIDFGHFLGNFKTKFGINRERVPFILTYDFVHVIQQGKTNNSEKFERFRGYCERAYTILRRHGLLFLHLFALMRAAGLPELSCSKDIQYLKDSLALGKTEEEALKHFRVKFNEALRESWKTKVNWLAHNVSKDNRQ
Chain of PI3-kinase p110-alpha/p85-alpha (P27986 whole entry): as the sequence (P27986 whole entry) above
Chain of PI3-kinase p110-alpha/p85-alpha (P42336 whole entry): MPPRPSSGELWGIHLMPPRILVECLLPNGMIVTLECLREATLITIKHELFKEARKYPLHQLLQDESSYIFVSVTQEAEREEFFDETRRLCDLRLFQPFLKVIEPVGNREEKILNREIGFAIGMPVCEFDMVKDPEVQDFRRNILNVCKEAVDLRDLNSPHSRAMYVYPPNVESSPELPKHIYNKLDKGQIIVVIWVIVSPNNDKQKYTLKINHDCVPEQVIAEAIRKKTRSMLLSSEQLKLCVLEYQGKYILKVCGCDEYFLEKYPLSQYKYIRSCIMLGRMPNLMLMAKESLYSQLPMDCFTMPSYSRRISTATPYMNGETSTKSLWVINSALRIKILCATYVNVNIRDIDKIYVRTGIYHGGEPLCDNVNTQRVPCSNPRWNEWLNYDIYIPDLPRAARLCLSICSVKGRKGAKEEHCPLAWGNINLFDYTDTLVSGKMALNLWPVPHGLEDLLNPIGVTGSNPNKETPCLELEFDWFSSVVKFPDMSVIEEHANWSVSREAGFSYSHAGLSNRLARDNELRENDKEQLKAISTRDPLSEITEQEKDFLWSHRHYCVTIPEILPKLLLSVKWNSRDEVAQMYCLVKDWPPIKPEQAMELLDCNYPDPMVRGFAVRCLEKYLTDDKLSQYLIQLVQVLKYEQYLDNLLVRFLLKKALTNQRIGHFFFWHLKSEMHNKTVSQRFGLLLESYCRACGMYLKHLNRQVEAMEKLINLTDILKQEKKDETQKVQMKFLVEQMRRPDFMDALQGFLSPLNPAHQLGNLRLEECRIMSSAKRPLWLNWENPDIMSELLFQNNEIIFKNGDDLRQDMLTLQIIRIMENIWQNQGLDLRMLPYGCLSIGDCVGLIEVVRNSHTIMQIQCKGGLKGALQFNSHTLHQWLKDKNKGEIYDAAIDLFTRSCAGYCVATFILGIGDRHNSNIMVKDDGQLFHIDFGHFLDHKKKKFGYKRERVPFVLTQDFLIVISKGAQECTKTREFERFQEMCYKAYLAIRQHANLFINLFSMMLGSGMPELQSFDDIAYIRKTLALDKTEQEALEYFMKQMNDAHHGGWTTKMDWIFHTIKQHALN

Consider `Cc1ccccc1-n1c(Cn2nc(Cl)c3c(N)ncnc32)cc2cccc(C)c2c1=O`, for which the IC50 in test [1] is below 1000 nM; in test [3] it was above 10000 nM; in test [4], below 100 nM. Besides, the 50% effective concentration (EC50) in test [2] was below 1000 nM.

For `Cc1cccc2cc([C@H](C)Nc3ncnc4[nH]cc(C(N)=O)c34)n(C3CC3)c(=O)c12`, the half-maximal inhibitory concentration (IC50) in test [1], in test [4] and in test [5] was below 100 nM throughout.

On to `Cc1ccccc1-n1c(CN(C)c2ncnc3[nH]cnc23)cc2cccc(C)c2c1=O`, for which the half-maximal inhibitory concentration (IC50) in test [1] is below 10000 nM; in test [3] it was above 10000 nM; in test [5], above 10000 nM.

With `Cc1cccc2cc([C@H](C)Nc3ncnc4[nH]ccc34)n(C3CC3)c(=O)c12`, the IC50 in test [1], in test [4] and in test [5] was below 100 nM each time.

As to `Cc1cccc2cc(Cn3nc(-c4ccc5oc(N)nc5c4)c4c(N)ncnc43)n(C3CC3)c(=O)c12`, the figures for the IC50 in test [1], in test [3] and in test [4] were below 100 nM, below 100000 nM and below 100 nM, respectively. The EC50 in test [2] is below 100 nM.

As for `Cc1cccc2cc([C@H](C)Nc3ncnc4[nH]cc(F)c34)n(-c3ccccc3)c(=O)c12`, the IC50 in test [1], in test [4] and in test [5] was below 100 nM throughout. Moreover, in test [2], the half-maximal effective concentration (EC50) was below 100 nM.

Take `Cc1cccc2cc([C@H](C)Nc3ncnc4[nH]cc(Br)c34)n(C3CC3)c(=O)c12`: the IC50 in test [1], in test [4] and in test [5] was below 100 nM each time.

On to `Cc1cccc2cc([C@H](C)Nc3ncnc4[nH]nc(C#N)c34)n(-c3ccccc3)c(=O)c12`, for which the IC50 in test [1], in test [4] and in test [5] was below 100 nM in each case. In addition, in test [2], the concentration giving a half-maximal response (EC50) is below 100 nM.

With `Cc1cccc2cc([C@H](C)Nc3ncnc4[nH]cc(C#N)c34)n(-c3ccccc3)c(=O)c12`, the IC50 in test [1], in test [4] and in test [5] was below 100 nM each time.

Consider `Cc1ccncc1-n1c(Cn2nc(I)c3c(N)ncnc32)cc2cccc(C)c2c1=O`, for which the IC50 in test [1] is below 1000 nM; in test [4] it was below 100 nM; in test [5] it was above 10000 nM. Also, the EC50 in test [2] is below 1000 nM.

For `Cc1cccnc1-n1c(Cn2nc(Cl)c3c(N)ncnc32)cc2cccc(C)c2c1=O`, the IC50 in test [1] is above 10000 nM; in test [3], above 10000 nM; in test [4] it was below 1000 nM. Moreover, the concentration for a half-maximal effect (EC50) in test [2] is below 1000 nM.

For `Cc1cccc2cc([C@H](C)Nc3ncnc4[nH]cc(Cl)c34)n(-c3ccccc3)c(=O)c12`, the IC50 in test [1], in test [4] and in test [5] was below 100 nM in each case.

Consider `Cc1cccc2cc([C@H](C)Nc3ncnc4[nH]cc(F)c34)n(C3CC3)c(=O)c12`, for which the concentration for half-maximal inhibition (IC50) in test [1], in test [4] and in test [5] was below 100 nM throughout. For the same molecule, the EC50 in test [2] is below 100 nM.

In the case of `Cc1cccc2cc(Cn3nc(I)c4c(N)ncnc43)n(-c3ccccc3Cl)c(=O)c12`, the values for the IC50 in test [1], in test [4] and in test [5] were below 1000 nM, below 100 nM and above 10000 nM, respectively. Besides, the EC50 in test [2] was below 1000 nM.

Turning to `Cc1cccc2cc([C@H](C)Nc3ncnc4[nH]nc(C(N)=O)c34)n(-c3ccccc3)c(=O)c12`, the IC50 in test [1], in test [4] and in test [5] was below 100 nM throughout. In addition, the EC50 in test [2] was below 100 nM.

Consider `Cc1cccc2cc([C@H](C)Nc3ncnc4[nH]ccc34)n(-c3ccccc3)c(=O)c12`, for which the 50% inhibitory concentration (IC50) in test [1] and in test [4] was below 100 nM in each case. For the same molecule, the EC50 in test [2] was below 100 nM.

Take `Cc1ccccc1-n1c(Cn2nc(C(F)F)c3c(N)ncnc32)cc2cccc(C)c2c1=O`: the IC50 in test [1] and in test [4] was below 100 nM in each case. Moreover, the EC50 in test [2] was below 100 nM.

On to `C[C@H](Nc1ncnc2[nH]cnc12)c1cc2cccc(Cl)c2c(=O)n1C1CC1`, for which the IC50 in test [1], in test [4] and in test [5] was below 100 nM in each case. Besides, in test [2], the EC50 was below 100 nM.

With `CCC(Nc1ncnc2[nH]cnc12)c1cc2cccc(C)c2c(=O)n1-c1ccccc1` (stereo not given), the IC50 in test [1] and in test [4] was below 100 nM throughout. Also, the EC50 in test [2] was below 100 nM.

Turning to `Cc1cccc2cc(Cn3nc(-c4ccc5oc(N)nc5c4)c4c(N)ncnc43)n(C3CCC3)c(=O)c12`, the IC50 in test [1] and in test [4] was below 100 nM each time. Besides, the EC50 in test [2] is below 100 nM.

Take `Cc1cccc2cc(Cn3nc(-c4ccc5nc(N)[nH]c5c4)c4c(N)ncnc43)n(-c3ccccc3)c(=O)c12`: the IC50 in test [1] and in test [4] was below 100 nM in each case. Further, the EC50 in test [2] was below 100 nM.

`CC(=O)Nc1nc2cc(-c3nn(Cc4cc5cccc(C)c5c(=O)n4-c4ccccc4C)c4ncnc(N)c34)ccc2o1`: the IC50 in test [1] and in test [4] was below 100 nM throughout. In test [2], the EC50 was below 100 nM.

In the case of `Cc1ccccc1-n1c(Cn2nc(-c3cccc(O)c3)c3c(N)ncnc32)cc2ccccc2c1=O`, the IC50 in test [1] is below 1000 nM; in test [3], above 10000 nM; in test [4], below 100 nM. Besides, the EC50 in test [2] was below 1000 nM.

On to `CC(=O)Nc1nc2cc(-c3nn(Cc4cc5cccc(C)c5c(=O)n4-c4ccccc4)c4ncnc(N)c34)ccc2o1`, for which the IC50 in test [1], in test [4] and in test [5] was below 100 nM in each case. Besides, the half-maximal effective concentration (EC50) in test [2] was below 100 nM.

For `Cc1cccc2cc(Cn3nc(-c4ccc5nc(N)sc5c4)c4c(N)ncnc43)n(-c3ccccc3)c(=O)c12`, the IC50 in test [1] was below 100 nM; in test [3], below 100000 nM; in test [4], below 100 nM. Further, the EC50 in test [2] was below 100 nM.

For the molecule `COc1ccc(-c2nn(Cc3cc4cccc(C)c4c(=O)n3-c3ccccc3F)c3ncnc(N)c23)cc1OC`, the IC50 in test [1] was below 1000 nM; in test [3], above 10000 nM; in test [4], below 1000 nM. The 50% effective concentration (EC50) in test [2] was below 1000 nM.

Regarding `Cc1cccc2cc([C@H](C)Nc3ncnc4[nH]cc(Br)c34)n(-c3ccccc3)c(=O)c12`, the IC50 in test [1], in test [4] and in test [5] was below 100 nM throughout. Moreover, in test [2], the EC50 is below 100 nM.

Regarding `Cc1cccc2cc([C@H](C)Nc3ncnc4[nH]cc(C(N)=O)c34)n(-c3ccccc3)c(=O)c12`, the IC50 in test [1], in test [4] and in test [5] was below 100 nM each time.

For the molecule `Cc1ccccc1-n1c(Cn2nc(-c3ccc4sc(N)nc4c3)c3c(N)ncnc32)cc2cccc(C)c2c1=O`, the IC50 in test [1] and in test [4] was below 100 nM in each case. Further, the half-maximal effective concentration (EC50) in test [2] was below 100 nM.

Turning to `Cc1ccccc1-n1c(Cn2nc(-c3ccc4nc(N)[nH]c4c3)c3c(N)ncnc32)cc2cccc(C)c2c1=O`, the IC50 in test [1] and in test [4] was below 100 nM in each case. In test [2], the EC50 was below 100 nM.

`Cc1cccc2cc([C@H](C)Nc3ncnc4[nH]cnc34)n(C3CC3)c(=O)c12`: the IC50 in test [1], in test [4] and in test [5] was below 100 nM throughout. In test [2], the 50% effective concentration (EC50) was below 100 nM.

Take `Cc1cccc2cc(Cn3nc(I)c4c(N)ncnc43)n(-c3ccccc3F)c(=O)c12`: the 50% inhibitory concentration (IC50) is below 1000 nM in test [1] and below 100 nM in test [4]. In addition, in test [2], the EC50 was below 10000 nM.

For the molecule `Cc1cccc2cc([C@H](C)Nc3nc(N)ncc3Cl)n(-c3ccccc3)c(=O)c12`, the IC50 in test [1] and in test [4] was below 100 nM throughout. Moreover, the EC50 in test [2] was below 100 nM.

For the molecule `Cc1cccc2cc(Cn3nc(C#CC4CC4)c4c(N)ncnc43)n(-c3ccccc3F)c(=O)c12`, the IC50 in test [1] is above 10000 nM; in test [4] it was below 1000 nM. Besides, in test [2], the EC50 is below 1000 nM.

In the case of `Cc1cccnc1-n1c(Cn2nc(Br)c3c(N)ncnc32)cc2cccc(C)c2c1=O`, the results for the IC50 in test [1], in test [3] and in test [4] were below 10000 nM, above 10000 nM and below 1000 nM, respectively. In addition, the EC50 in test [2] is below 100 nM.

In the case of `Cc1cccc2cc([C@H](C)Nc3ncnc4[nH]cnc34)n(-c3ccccc3)c(=O)c12`, the IC50 in test [1] and in test [4] was below 100 nM in each case. Also, the EC50 in test [2] is below 100 nM.

In the case of `Cc1cccc2cc(C(C)Nc3ncnc4[nH]cnc34)n(-c3ccc(F)cc3)c(=O)c12` (stereo not given), the IC50 in test [1] and in test [4] was below 100 nM each time. The EC50 in test [2] was below 100 nM.

As for `Cc1cccc2cc([C@H](C)Nc3nc(F)nc4[nH]cnc34)n(-c3ccccc3)c(=O)c12`, the IC50 in test [1] and in test [4] was below 100 nM throughout. In test [2], the half-maximal effective concentration (EC50) is below 100 nM.

As for `Cc1cccc2cc([C@H](C)Nc3ncnc4[nH]cc(C#N)c34)n(C3CC3)c(=O)c12`, the IC50 in test [1], in test [4] and in test [5] was below 100 nM each time. The 50% effective concentration (EC50) in test [2] is below 100 nM.

For `CCC(Nc1ncnc2[nH]cnc12)c1cc2cccc(C)c2c(=O)n1-c1ccc(F)cc1` (stereo not given), the IC50 in test [1] and in test [4] was below 100 nM each time. Also, the concentration for a half-maximal effect (EC50) in test [2] was below 100 nM.

In the case of `Cc1cccc2cc([C@H](C)Nc3ncnc4[nH]nc(C(N)=O)c34)n(C3CC3)c(=O)c12`, the IC50 in test [1], in test [4] and in test [5] was below 100 nM each time.

In the case of `Cc1ccccc1-n1c(Cn2nc(-c3ccc(Cl)cc3)c3c(N)ncnc32)cc2cccc(C)c2c1=O`, the figures for the IC50 in test [1], in test [3] and in test [4] were below 1000 nM, above 10000 nM and below 1000 nM, respectively. For the same molecule, the EC50 in test [2] is below 10000 nM.
